Assay results from patent US20090162351A1, “Transdiscal administration of inhibitors of p38 MAP kinase” (DePuy Spine, Inc., priority 2007, published 2009).

Legend:
Format in all cases: cell-based
[1] = test system: injured bovine articular cartilage explants in inflammatory medium; assay: Drop tower model: GAG degradation in injured cartilage explants; conditions: for inhibition at 10 µM: Bos taurus, injured cartilage explants
Excerpt: In order to assess cartilage breakdown by inflammatory mediators and the effect of antagonists on those mediators, a cartilage impact model (the “drop tower model”) was established using a drop tower device to apply a peak compressive stress to a cartilage sample of about 20-30 MPa over an area of about 11-15 mm^2. Advantages of this model included its clinical relevance due to its potential to mimic several key parameters of osteoarthritis such as inflammatory cell mediators (by co-culturing with inflammatory cells), and induction of trauma to create the cartilage damage.
In the “drop tower design model” cartilage explants were first injured and then cultured in inflammatory medium to mimic the progression of joint impact trauma linked to cartilage degeneration and osteoarthritis. The approach of the model is to artificially produce cellular damage without gross structural alterations, and to determine how the cells respond to such an insult over the ensuing days when treated with or without potential therapeutic agents.
The device comprises a vertical rail that guides a sliding weight from 0.1 kg to 3 kg directly onto a force transducer which is situated at the bottom of the device. A sphere-shaped 2 mm indenter resting on a specimen is located at the bottom of the vertical rail. The indenter is held by a stop screw. The specimen is rigidly attached to a tissue holder underneath the indenter, to avoid side movements, the specimen is rigidly attached to the tissue holder. In this manner, the force transducer transduces a force indirectly onto the specimen. Adjusting the weight of a mass and height from which the mass drops varies the magnitude of the intended impact. For example, a weight mass (e.g., […]) held by a weight holder can be released from a height of e.g., 36 cm and dropped onto the force transducer.
Samples for compound evaluation were tested using either of two different methods to induce inflammatory conditions. One method utilized media conditioned from peripheral blood mononuclear cells (PBMCs) stimulated with LPS (“+LPS”) or non-inflammatory media without LPS (“−LPS”). Another method utilized the absence or presence of a cocktail of cytokines.
In the first method, bovine or human PBMCs were freshly prepared using Ficoll gradient by Lampire Biological Laboratories, Inc. PBMCs in RPMI w/10% FCS at delivery were spun down at 1500 rpm for twenty minutes and the cell pellet was washed twice with 1×PBS to wash off the residual Ficoll. The cells were then resuspended at a density of 1×10^6/ml in RPMI supplemented with 10% FCS, 1× Antibiotics-Antimycotics. The suspension was divided into two aliquots. One aliquot was stimulated with 10 μg/ml of LPS and the other was not stimulated. Both aliquots were then incubated at 37° C., 5% CO2 for twenty-four to seventy-two hours. The conditioned media with or without LPS stimulation are collected, aliquoted, and stored in −80° C. for a maximum of three months. Each conditioned medium was assessed for levels of pro-inflammatory cytokines to ensure their secretion from PBMC. A representative cytokine, IL-6, was assayed by ELISA using a Human IL-6 Quantikine kit and it was shown that the LPS-stimulated medium had at least 10 ng/ml of IL-6, while IL-6 was undetectable in the unstimulated medium.
In the second method, the explants were cultured at 37° C., 5% CO2 either in stimulated or non-stimulated conditioned medium as described above or in defined medium containing DMEM supplemented with 1% FCS, 1× insulin-transferrin-sodium selenite media supplement and Antibiotics-Antimycotics in the presence or absence of a cocktail of cytokines containing 10 ng/ml of IL-1β, 100 ng/ml of TNFα and 5 ng/ml of IFN-γ. The compounds were solubilized in H2O, Ethanol or DMSO (10^−2 M) according to suppliers' instructions and further diluted with either conditioned medium stimulated with or without LPS to the required concentrations. DMSO concentrations in the culture media never exceeded 1%. […]

[2] = test system: PGE2 synthesis in injured bovine cartilage explants; assay: Drop tower model: PGE2 synthesis in injured cartilage explants
Protocol: (§1) In the second method, the explants were cultured at 37° C., 5% CO2 either in stimulated or non-stimulated conditioned medium as described above or in defined medium containing DMEM supplemented with 1% FCS, 1× insulin-transferrin-sodium selenite media supplement and Antibiotics-Antimycotics in the presence or absence of a cocktail of cytokines containing 10 ng/ml of IL-1β, 100 ng/ml of TNFα and 5 ng/ml of IFN-γ. The compounds were solubilized in H2O, Ethanol or DMSO (10^−2 M) according to suppliers' instructions and further diluted with either conditioned medium stimulated with or without LPS to the required concentrations. DMSO concentrations in the culture media never exceeded 1%. This concentration of DMSO has no effect on cartilage proteoglycan metabolism in response to cytokines. The injured and noninjured cartilage explants were treated with compound-containing medium for three to five days. The specimens were first treated with compounds at desired concentrations at 37° C. for one hour and then incubated for three to five days in the absence or presence of the cocktail of cytokines. At the end of the incubation, media and cartilage samples were harvested and frozen for further analysis.
PGE2 was measured with STAT-Prostaglandin E2 EIA ELISA kit (Cayman Biochemicals), as described in Example III above. The antibody-PGE2 complex binds to a goat polyclonal anti-mouse IgG that has been previously attached to the well. After washing to remove any unbound reagents, para-nitrophenyl phosphate (pNPP) was added to the well. The product of this enzymatic reaction absorbs strongly at 412 nm. Because of the large range in response to IL-1β and other cytokines, PGE2 values were converted to log scale prior to doing t-tests.

[3] = test system: NO production in injured bovine cartilage explants; assay: Drop tower model: NO production in injured cartilage explants; conditions: Bos taurus; at 10 μM; injured cartilage explants
Protocol: as §1
Nitrate/Nitrite was measured using the Griess reaction (Green L. C. et al., “Analysis of Nitrate, Nitrite, and [15N]nitrate in Biological Fluids,” Anal. Biochem. 126: 131-138 (1982)) with a Nitrate/Nitrite Colorimetric Assay Kit (Cayman Chemicals), as described in Example III above.

[4] = test system: bovine chondrocyte pellets / ARC tissues stimulated with IL-1β; assay: Chondrocyte pellet / ARC culture model: GAG degradation assay; conditions: Table 3B
Excerpt: A chondrocyte pellet culture model was developed for in vitro high throughput screening of therapeutic compounds for inhibition of IL-1β-stimulated matrix degradation. The chondrocyte pellet culture model can be used to detect various potential therapeutic compounds effective in blocking different processes caused by IL-1β stimulation. For example, IL-1β stimulation results in increased glycosaminoglycan (GAG) degradation, prostaglandin E2 (PGE2) synthesis and total nitrite/nitrate production. Compounds with different mechanisms of action may inhibit the increase of one or two or all three of these parameters. For this reason, screening by, for example, measuring only GAG release would be limited to detection of a specific class of inhibitors and may not detect compounds with diversified mechanisms of function which may be involved in inhibition of the IL-1 stimulated inflammatory process. The development of the chondrocyte pellet culture assay system in a 96-well plate made possible large-scale screening of potential therapeutic compounds with different mechanisms of action.
(§2) Calf articular cartilage was obtained from the knee joints of eight to twelve month old animals and was processed within twenty-four hours after sacrifice. After removal of muscle and ligament, the cartilage was kept moist using phosphate buffer solution (PBS) to prevent tissue dehydration, and was aseptically peeled off from subchondral bone with a scalpel, and the cartilage pieces were further minced into smaller pieces (˜0.3-0.5×˜0.2-0.5 cm cubes). […] Chondrocytes were then enzymatically isolated from the tissue by incubation for overnight at 37° C. with gentle agitation in 0.2% collagenase in Dulbecco's modified eagle media (DMEM). After removal of tissue debris by filtration through cell strainer and the residual collagenase by 3× wash in PBS, cells were finally resuspended at a density of 2.5×10^6 cells/ml in chondrocyte medium. A 1 ml aliquot of the cell suspension was dispensed into either a 15 ml Falcon centrifuge tube or a 96 deep-well plate and centrifuged at 2000×g for five minutes. The chondrocyte pellets were incubated at 37° C. in a humidified atmosphere of 5% CO2 for two to three weeks with a medium change every other day.
(§3) As an alternative to using calf articular cartilage, a commercial Aliginate Recovered Chondrocytes (ARC) system was also used (Articular Engineering, LLC (Northbrook, Ill.)). Use of the commercial system cut down on labor and time in producing chondrocyte pellet. This system produced cartilaginous tissue in vitro using bovine chondrocytes. The first step consisted of culturing chondrocytes in alginate under conditions optimal for the formation of a cell-associated matrix (CM). The second step allowed these cells with their CM, after recovery, to rapidly form and become integrated into a solid mass of cartilage on a porous insert within two weeks.
This tissue is rich in cells surrounded by a cell-associated matrix that is degraded rapidly when the cells are exposed to IL-1. ARC tissues in 3 mm punches at delivery were first dispensed into a 96 deep-well plate, one punch per well, for compound treatment. The subsequent procedures were the same as those used for the chondrocyte pellets.
(§4) Chondrocyte pellets were washed once with 1 ml of Chondrocyte Stimulation Medium and equilibrated in the same medium at room temperature for fifteen to thirty minutes. Compounds were dissolved in H2O, Ethanol or dimethyl sulfoxide (DMSO) (10^−2 M) according to suppliers' instructions and further diluted with Chondrocyte Stimulation Medium to the required concentrations. DMSO concentrations in the culture media should not exceed 1%; this concentration of DMSO has no effect on cartilage proteoglycan metabolism in response to cytokines.
The pellets were first treated with compounds at desired concentrations at 37° C. for one hour and then incubated for three to five days in the absence or presence of 10 ng/ml of IL-1β. […]

[5] = test system: IL-1β-stimulated PGE2 synthesis in bovine chondrocyte pellets / ARC tissues; assay: Chondrocyte pellet / ARC culture model: Prostaglandin E2 assay; conditions: Table 3B
Excerpt: as §2, §3, §4
(§5) The pellets were first treated with compounds at desired concentrations at 37° C. for one hour and then incubated for three to five days in the absence or presence of 10 ng/ml of IL-1β. At the end of the incubation, media and pellets were harvested and frozen for further analysis. Pellets were also fixed as needed in 4% (w/v) paraformaldehyde in PBS for histology analysis.
Prostaglandin E2 (PGE2) was measured with a STAT-Prostaglandin E2 EIA ELISA kit (Cayman Biochemicals). This assay is based on the competition between PGE2 from 50 μl samples and a PGE2-alkaline phosphatase conjugate for a limited amount of PGE2 monoclonal antibody in a reaction volume of 150 μl at room temperature for one hour. The antibody-PGE2 complex bound to a goat polyclonal anti-mouse IgG that had been previously attached to the well. After washing to remove any unbound reagents, para-nitrophenyl phosphate (pNPP) was added to the well. The product of this enzymatic reaction absorbs strongly at 412 nm. Because of the large range in response to IL-1β and other cytokines, PGE2 values were converted to log scale prior to doing t-tests.
To characterize the relative efficacies among different p38 MAP kinase inhibitors, dose-response curves were generated for both PGE2 and NO assays. […] After one hour of treatment, ARCs were stimulated with or without 7.5 ng/ml IL-1β and continued to incubate for five days before assay. The IL-1β-stimulated PGE2 synthesis or NO production was first calculated by subtraction of PGE2/NO levels in the absence of IL-1β from that in the presence of IL-1β. […]

[6] = test system: IL-1β-stimulated NO production in bovine chondrocyte pellets / ARC tissues; assay: Chondrocyte pellet / ARC culture model: total nitrite and nitrate assay; conditions: Table 3B
Excerpt: as §2, §3, §4, §5
Nitrate/Nitrite levels were measured using the Griess reaction (Green L. C. et al., “Analysis of Nitrate, Nitrite, and [15N]nitrate in Biological Fluids,” Anal. Biochem. 126: 131-138 (1982)) with a Nitrate/Nitrite Colorimetric Assay Kit (Cayman Chemicals), the contents of which are incorporated herein by reference. The assay involved a simple two-step process. The first step involved conversion of nitrate in 50 μl of culture medium to nitrite utilizing nitrate reductase in a reaction volume of 100 μl at room temperature for two hours. The second step involved the addition of 50 μl of both Griess Reagent 1 and 2, which converted nitrite into a deep purple azo compound in ten minutes. Photometric measurement of the absorbance at 540 or 550 nm due to this azo chromophore accurately determined nitrite concentration. This assay kit cannot be used for RPMI (Roswell Park Memorial Institute) derived tissue culture medium due to interference with the colorimetric reaction.
To characterize the relative efficacies among different p38 MAP kinase inhibitors, dose-response curves were generated for both PGE2 and NO assays. […] After one hour of treatment, ARCs were stimulated with or without 7.5 ng/ml IL-1β and continued to incubate for five days before assay. […]

For `CNC(=O)[C@H](Cc1ccccc1)NC(=O)[C@H](CC(C)C)[C@H](CSc1cccs1)C(=O)NO` [Batimastat, reference compound], the inhibition at 10 µM [1] was 100%, the “PGE2 synthesis (in words)” value ([2]; 10 μM, cocktail of cytokines (IL-1β, TNF-α, INF-γ), five days) was “did not inhibit” and the “Inhibition of PGE2 synthesis (in words)” value ([2]; Table 4) was “No effect”. The inhibition at 10 µM [3] was 100%.

`C[C@H]1[C@H](C)CC[C@]2(C(=O)O[C@@H]3O[C@H](CO[C@@H]4O[C@H](CO)[C@@H](O[C@@H]5O[C@@H](C)[C@H](O)[C@@H](O)[C@H]5O)[C@H](O)[C@H]4O)[C@@H](O)[C@H](O)[C@H]3O)CC[C@]3(C)C(=CC[C@@H]4[C@@]5(C)C[C@@H](O)[C@H](O)[C@@](C)(CO)[C@@H]5[C@H](O)C[C@]43C)[C@H]12` [Madecassoside, reference compound] was tested, and the “GAG Release, Pellet Assay (in words)” value [4] was “No effect”, the “PGE2 Inhibition, Pellet Assay (in words)” value [5] was “No effect” and the “NO Inhibition, Pellet Assay (in words)” value [6] was “No effect”.

In the case of `CN1C(C(=O)Nc2ccccn2)=C(O)c2ccccc2S1(=O)=O` [Proxicam, reference compound], the “GAG Release, Pellet Assay (in words)” value [4] is reported as “No effect” and the “Inhibition of GAG degradation (in words)” value ([1]; Table 4, injured cartilage explants, inflammatory conditions) is reported as “No effect”.

`CC(C(=O)O)c1ccc(C(=O)c2ccccc2)s1` (centres unmarked) [Tiaprofenic Acid, reference compound] was tested, and the “GAG Release, Pellet Assay (in words)” value [4] was “No effect” and the inhibition at 10 µM [1] was 70%.

With `CC1(C)O[C@@H]2[C@@H](CO[C@@]3(COS(N)(=O)=O)OC(C)(C)O[C@@H]23)O1` [Topramax, reference compound] the “GAG Release, Pellet Assay (in words)” value [4] was “No effect”, the “PGE2 Inhibition, Pellet Assay (in words)” value [5] was “No effect” and the “NO Inhibition, Pellet Assay (in words)” value [6] was “No effect”.
